Drawing on BindingDB's records for patent US20250115598 (Anaxis Pharma, 2025), this text covers Kd for seven molecules.

Each structure is given as a SMILES string. pKd: −log10 of the molar value. Where only a bound is given, the exact number is not on record here.

Experiment in all cases: In Vitro Assay
In assay [1] the target is T1, Receptor-interacting serine/threonine-protein kinase 1 (Homo sapiens, UniProt Q13546).
T1 sequence (Q13546 whole entry): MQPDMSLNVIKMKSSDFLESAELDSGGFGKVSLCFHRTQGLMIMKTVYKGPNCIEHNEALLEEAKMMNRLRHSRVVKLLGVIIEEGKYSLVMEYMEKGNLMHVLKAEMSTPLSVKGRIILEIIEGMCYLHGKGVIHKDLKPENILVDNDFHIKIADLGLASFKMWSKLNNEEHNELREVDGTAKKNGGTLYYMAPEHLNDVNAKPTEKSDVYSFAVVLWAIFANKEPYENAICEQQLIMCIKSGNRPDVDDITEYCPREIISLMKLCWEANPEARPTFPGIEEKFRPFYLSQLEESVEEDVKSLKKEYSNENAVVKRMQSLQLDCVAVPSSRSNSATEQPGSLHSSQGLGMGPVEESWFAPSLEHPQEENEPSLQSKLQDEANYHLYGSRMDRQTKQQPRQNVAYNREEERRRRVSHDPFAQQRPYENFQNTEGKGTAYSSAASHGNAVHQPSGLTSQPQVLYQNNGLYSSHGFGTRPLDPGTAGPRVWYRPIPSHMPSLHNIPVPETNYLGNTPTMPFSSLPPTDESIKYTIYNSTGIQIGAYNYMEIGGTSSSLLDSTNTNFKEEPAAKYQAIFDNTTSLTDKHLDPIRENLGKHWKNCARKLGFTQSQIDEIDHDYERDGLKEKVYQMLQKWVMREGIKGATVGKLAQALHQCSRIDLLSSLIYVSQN
Here is the method: (§1) Binding affinity of the test compounds for human MLKL (full length), mouse MLKL (full length), human RIPK1 and human RIPK3 was determined using the KINOMEscan™ technology developed by DiscoverX (USA; http://www.discoverx.com). The assay was conducted according to manufacturer instructions.

The target of assay [2] is Receptor-interacting serine/threonine-protein kinase 3 (Homo sapiens, UniProt Q9Y572). Here is the method:
as §1

For assay [3], the target named is T2, Mixed lineage kinase domain-like protein (Homo sapiens, UniProt Q8NB16).
T2 sequence (Q8NB16 whole entry): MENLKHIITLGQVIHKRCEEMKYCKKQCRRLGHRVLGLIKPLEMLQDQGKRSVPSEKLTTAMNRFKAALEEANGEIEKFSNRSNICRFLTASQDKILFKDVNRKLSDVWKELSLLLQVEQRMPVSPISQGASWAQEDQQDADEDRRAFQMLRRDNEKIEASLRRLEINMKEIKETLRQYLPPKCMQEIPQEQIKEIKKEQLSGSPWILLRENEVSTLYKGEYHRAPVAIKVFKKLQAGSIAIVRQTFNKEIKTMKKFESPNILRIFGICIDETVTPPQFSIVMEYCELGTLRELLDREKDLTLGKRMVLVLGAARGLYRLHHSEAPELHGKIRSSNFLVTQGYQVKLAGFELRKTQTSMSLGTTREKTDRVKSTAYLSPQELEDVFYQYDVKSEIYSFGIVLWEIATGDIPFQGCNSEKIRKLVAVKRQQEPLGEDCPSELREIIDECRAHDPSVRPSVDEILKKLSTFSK
On the procedure:
as §1

Receptor-interacting serine/threonine-protein kinase 3, sequence (Q9Y572 whole entry): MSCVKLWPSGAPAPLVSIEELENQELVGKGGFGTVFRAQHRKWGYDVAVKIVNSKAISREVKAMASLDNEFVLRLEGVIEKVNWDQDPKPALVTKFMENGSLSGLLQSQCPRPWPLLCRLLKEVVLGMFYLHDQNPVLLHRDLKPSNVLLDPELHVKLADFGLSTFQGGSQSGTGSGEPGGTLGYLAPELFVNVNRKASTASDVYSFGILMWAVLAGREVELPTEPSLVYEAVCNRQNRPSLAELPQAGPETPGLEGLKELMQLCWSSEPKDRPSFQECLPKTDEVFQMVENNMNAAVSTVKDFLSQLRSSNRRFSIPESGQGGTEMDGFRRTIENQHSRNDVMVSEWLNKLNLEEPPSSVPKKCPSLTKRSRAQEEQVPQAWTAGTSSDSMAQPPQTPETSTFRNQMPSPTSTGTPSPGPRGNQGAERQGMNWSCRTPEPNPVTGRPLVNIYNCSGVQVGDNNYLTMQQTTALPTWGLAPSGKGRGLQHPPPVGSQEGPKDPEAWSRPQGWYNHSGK

For orientation: pKd means the negative decadic logarithm of the Kd, by convention in mol/L. Turning to `Nc1ncc(-c2cnn(C3CCOCC3)c2)c2occ(-c3ccc(NS(=O)(=O)C(F)F)c(OCc4ccc(F)cc4)c3)c12` [US20250115598, Compound 5], the pKd in assay [1] and in assay [2] was < 5.60 in each case.

With `Cn1nc(-c2ccc(NS(=O)(=O)C(F)F)c(OCc3ccc(F)cc3)c2)c2c(N)ncc(-c3ccncc3)c21` [US20250115598, Compound 14], the negative-log Kd (pKd) in assay [1] and in assay [2] was < 5.60 throughout. Consider `C[C@H](Oc1cc(-c2nn(C)c3c(C4=CCCN(C)C4)cnc(N)c23)ccc1NS(=O)(=O)C(F)F)c1ccc(F)cc1` [US20250115598, Compound 55], for which the pKd in assay [1] and in assay [2] was < 5.60 in each case. As for `C[C@H](Oc1cc(-c2nn(C)c3c(-c4cnn(CCC(F)(F)F)c4)cnc(N)c23)ccc1NS(=O)(=O)C(F)F)c1ccc(F)cc1` [US20250115598, Compound 113], the pKd in assay [3] was > 7.30. On to `COc1ccc([C@H](C)Oc2cc(-c3nn(C)c4c(-c5cnn(C6CCOCC6)c5)cnc(N)c34)ccc2NS(=O)(=O)C(F)F)cc1` [US20250115598, Compound 129], for which the negative logarithm of the Kd (pKd) in assay [1] and in assay [2] was < 5.60 each time. As for `C[C@H](Oc1cc(-c2nn(C)c3c(-c4cnn(C5CCOCC5)c4)cnc(N)c23)ccc1NS(=O)(=O)C(F)F)c1ccc(F)cc1` [US20250115598, Compound 135], the pKd in assay [1] and in assay [2] was < 5.60 throughout. As for `C[C@H](Oc1cc(-c2nn(C)c3c(-c4cnn(C5CCN(C)C(C(F)F)C5)c4)cnc(N)c23)ccc1NS(=O)(=O)C(F)F)c1ccc(F)cc1` (stereo partly drawn) [US20250115598, Compound 158], the pKd in assay [1] and in assay [2] was < 5.60 in each case.
